In this assay the test system is oxidized collagen IV. Nature of the assay: Binding of DA-DKP and NAT to H2O2 treated collagen IV (LCMS of <5 kDa fraction). Further details: species or system human. Particulars: for binding to oxidized collagen, result in words: equimolar concentration. Here is the method: Collagen source: 1 mg/ml Collagen IV form human placenta in 0.25% acetic acid (Sigma™). The collagen was oxidixed with 500 μM H2O2 in 1×PBS for 1 hour at 37° C. The oxidized collagen IV (final=0.2 mg/ml) was then incubated with 2 μM DA-DKP or 2 NAT in PBS for 1 hour at 37° C. At the end of the incubation, the <5 kDa fraction was isolated by a VIVASPIN® 2 microcentrifugal filter having a molecular weight cutoff of 5,000. The <5 kDa fraction was analyzed for DA-DKP and/or NAT content using a liquid chromatograph-mass spectrometery (LCMS) method for DA-DKP analysis.

The mark [1] stands for this setting: 2 μM + oxidized Collagen IV 0.2 mg/ml, 1 hour at 37° C., content of <5 kDa fraction.

Entries after “also recorded” stand apart in the source; their conditions may differ.

`C[C@@H]1NC(=O)[C@H](CC(=O)O)NC1=O` [DA-DKP, aspartyl-alanyl diketopiperazine]: the “binding to oxidized collagen, result in words” value is recorded as “bind to oxidized forms of collagen”. The Average % decrease under setting [1] was determined as 26.0%. Where the note is “2 μM + oxidized Collagen IV w/2 μM NAT”, the Average % decrease came to 25.6%.

`CC(=O)N[C@@H](Cc1c[nH]c2ccccc12)C(=O)O` [NAT, N-acetyl-tryptophan]: the “binding to oxidized collagen, result in words” value is “binds more to oxidized collagen IV than DA-DKP; also recorded: bind to oxidized forms of collagen”. Besides, the Average % decrease under setting [1] was found to be 48.9%. Besides, the Average % decrease (2 μM + oxidized Collagen IV w/2 μM DA-DKP) came out at 28.7%.

The values are drawn from US10842847B2, “Treatment of degenerative joint disease” (Ampio Pharmaceuticals, Inc., priority 2011, dated 2020).
